# Results: US20170042196A1, “USE OF UMAMI COMPOUNDS TO ENHANCE SALTINESS” (Senomyx, Inc., priority 2015, published 2017)
# Key:
# Assay type in all cases: in vivo
# [1] = system: trained panelists (saltiness perception); experiment: 2-Alternative Forced Choice human taste test, saltiness in low sodium chicken broth; conditions: for Sample selected as saltier by panelists (Total): 55° C.; for saltiness of test sample versus control sample: p<0.1
# Method: Samples of low sodium chicken broth were prepared and compared using human taste tests. Control samples contained low sodium chicken broth alone. Test samples contained the same low sodium chicken broth to which a specific umami compound was added at a specified concentration. To prepare the test sample, a concentrated stock solution of an umami compound was prepared in ethanol. […] To create the control sample, the chicken broth was balanced with 0.1% ethanol. All samples were served at 55° C. Trained panelists were used to complete the test with three replicates (subject number reported in each table). A 2-Alternative Forced Choice test was used, where panelists received two three-digit blind-coded samples, one control and one test sample, in randomized, counter-balanced order. Panelists tasted samples, rinsing with water between samples, and indicated which of the two samples was […]. The results were analyzed using a binomial distribution with alpha=0.1.
# [2] = system: trained panelists (saltiness perception); experiment: Difference from Reference scaling human taste test, saltiness in low sodium chicken broth
# Method: Samples of low sodium chicken broth were prepared and compared using human taste tests. The reference samples contained low sodium chicken broth alone. The test samples contained the same low sodium chicken broth to which a specific umami compound was added. To prepare the test samples, a concentrated stock solution of an umami compound was prepared in ethanol. The stock solution was added to a commercially available no-MSG added, low sodium chicken broth (Pacific Organic Free Range Chicken Broth Low Sodium), resulting in a final concentration of the umami compound in the test sample with 0.1% ethanol. To create the reference sample, the low sodium chicken broth was balanced with 0.1% ethanol. All samples were served at 55° C. Trained panelists were used to complete the test with two replicates (subject number reported in each table). A Difference from Reference scaling test was used. Panelists received pairs of samples, consisting of the reference sample and a three-digit blind coded sample, which was either the reference sample again (i.e., a negative control), or the test sample containing the compound of interest. Panelists first tasted the reference sample, then rinsed with water and tasted the blind-coded sample. Panelists were asked to score the test sample for differences in saltiness as compared to the reference sample. […] The test also included measurement of other attributes rated on separate scales (e.g., umami intensity, bitterness, and chicken flavor) to ensure responses for saltiness focused solely on that attribute. The order in which panelists received sample pairs containing either the reference or the test sample as the three-digit blind coded sample was randomized and counterbalanced. The results were analyzed using a two-tailed Student's t-test, with alpha=0.1.
# [3] = system: trained panelists (saltiness perception); experiment: 2-Alternative Forced Choice human taste test, saltiness in chicken broth (low sodium broth + 100 mM NaCl); conditions: for Sample selected as saltier by panelists (Total): 0.1% ethanol, 55° C.; for saltiness of test sample versus control sample: p<0.1
# Method: Samples of chicken broth were prepared and compared using human taste tests. Control samples contained chicken broth alone. Test samples contained the same chicken broth to which a specific umami compound was added at a specified concentration. To prepare the test sample, a concentrated stock solution of an umami compound was prepared in ethanol. The stock solution was added to a commercially available no-MSG added, low sodium chicken broth (Pacific Organic Free Range Chicken Broth Low Sodium), to which 100 mM NaCl was also added, resulting in a final concentration of the umami compound in the test sample with 0.1% ethanol. To create the control sample, 100 mM NaCl was added to the low sodium chicken broth, and it was balanced with 0.1% ethanol. All samples were served at 55° C. A 2-Alternative Forced Choice test was used, where panelists received two three-digit blind-coded samples, one control and one test sample, in randomized, counter-balanced order. Panelists tasted samples, rinsing with water between samples, and indicated which of the two samples was […]. The results were analyzed using a binomial distribution with alpha=0.1.
structure (smiles),measurement,setting,value
COc1cccc(-c2n[nH]c(SCc3ccccn3)n2)c1OC [Formula (1b)],Sample selected as saltier by panelists (Total),"[1]; 5 ppm in low sodium chicken broth, 0.1% ethanol, n = 48 (16 panelists × 3 replicates)",33
same,saltiness of test sample versus control sample,[1]; 5 ppm in low sodium chicken broth,significantly saltier
same,Average Saltiness Score of Test Sample as compared to Reference Sample,"[2]; 5 ppm in low sodium chicken broth, 11-point scale −5 to +5, n = 24 (12 panelists × 2 replicates)",0.7
same,saltiness of test sample versus reference sample,"[2]; 5 ppm in low sodium chicken broth, p<0.1",significantly saltier
COC[C@@H](CC(C)C)NC(=O)c1ccc(C)c(C)c1 [Formula (1e)],Sample selected as saltier by panelists (Total),"[1]; 2 ppm in low sodium chicken broth, 0.1% ethanol, n = 51 (17 panelists × 3 replicates)",32
same,saltiness of test sample versus control sample,"[1]; 2 ppm in low sodium chicken broth, 0.1% ethanol",significantly saltier
same,Average Saltiness Score of Test Sample as compared to Reference Sample,"[2]; 2 ppm in low sodium chicken broth, 11-point scale −5 to +5, n = 30 (15 panelists × 2 replicates)",0.5
same,saltiness of test sample versus reference sample,"[2]; 2 ppm in low sodium chicken broth, p<0.1",significantly saltier
COc1cccc(CNC(=O)C(=O)NCCc2ccccn2)c1OC [Formula (1d)],Sample selected as saltier by panelists (Total),"[3]; 8 ppm in chicken broth (100 mM NaCl added), n = 48 (16 panelists × 3 replicates)",31
same,saltiness of test sample versus control sample,[3]; 8 ppm in chicken broth (100 mM NaCl added),significantly saltier
same,Sample selected as saltier by panelists (Total),"[1]; 8 ppm in low sodium chicken broth, 0.1% ethanol, n = 51 (17 panelists × 3 replicates)",37
same,saltiness of test sample versus control sample,[1]; 8 ppm in low sodium chicken broth,significantly saltier
same,Average Saltiness Score of Test Sample as compared to Reference Sample,"[2]; 8 ppm in low sodium chicken broth, 11-point scale −5 to +5, n = 30 (15 panelists × 2 replicates)",0.8
same,saltiness of test sample versus reference sample,"[2]; 8 ppm in low sodium chicken broth, p<0.1",significantly saltier
COc1ccc(CNC(=O)C(=O)NCCc2ccccn2)c(OC)c1 [Formula (1g)],Average Saltiness Score of Test Sample as compared to Reference Sample,"[2]; 1 ppm in low sodium chicken broth, 11-point scale −5 to +5, n = 30 (15 panelists × 2 replicates)",0.5
same,saltiness of test sample versus reference sample,"[2]; 1 ppm in low sodium chicken broth, n = 30, p<0.1",significantly saltier
COc1cc(C)ccc1CNC(=O)C(=O)NCCc1ccccn1 [Formula (1c)],Sample selected as saltier by panelists (Total),"[3]; 1 ppm in chicken broth (100 mM NaCl added), n = 51 (17 panelists × 3 replicates)",33
same,saltiness of test sample versus control sample,[3]; 1 ppm in chicken broth (100 mM NaCl added),significantly saltier
same,Sample selected as saltier by panelists (Total),"[1]; 1 ppm in low sodium chicken broth, 0.1% ethanol, n = 48 (16 panelists × 3 replicates)",36
same,saltiness of test sample versus control sample,[1]; 1 ppm in low sodium chicken broth,significantly saltier
COc1cc(C)ccc1CNC(=O)C(=O)NCCc1ccc(C)cn1 [Formula (1f)],Sample selected as saltier by panelists (Total),"[3]; 2 ppm Formula (1f) in chicken broth (100 mM NaCl added), n = 48 (16 panelists × 3 replicates)",32
same,saltiness of test sample versus control sample,[3]; 2 ppm Formula (1f) in chicken broth (100 mM NaCl added),significantly saltier
same,Average Saltiness Score of Test Sample as compared to Reference Sample,"[2]; 1 ppm in low sodium chicken broth, 11-point scale −5 to +5, n = 26 (13 panelists × 2 replicates)",1.0
same,saltiness of test sample versus reference sample,"[2]; 1 ppm in low sodium chicken broth, n = 26, p<0.1",significantly saltier
CCCC(CCC)NC(=O)c1ccc2c(c1)OCO2 [Formula (1a)],Sample selected as saltier by panelists (Total),"[3]; 2 ppm in chicken broth (100 mM NaCl added), n = 48 (16 panelists × 3 replicates)",31
same,saltiness of test sample versus control sample,[3]; 2 ppm in chicken broth (100 mM NaCl added),significantly saltier
same,Sample selected as saltier by panelists (Total),"[1]; 2 ppm in low sodium chicken broth, 0.05% ethanol, n = 48 (16 panelists × 3 replicates)",35
same,saltiness of test sample versus control sample,[1]; 2 ppm in low sodium chicken broth,significantly saltier
